Experimental findings from ChEMBL document CHEMBL1201862, “PubChem BioAssay data set” (2004) are described below.

SMILES strings stand for the structures.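 Cells were grown in 96-well plates and exposed to each compound for 48 hours at five concentrations; endpoints were interpolated linearly between bracketing concentrations, or set to the highest concentration if not reached. Here, GI50 denotes the concentration required for 50% inhibition of growth.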 The source made the active and inactive calls. No stated cut-off is given here; in the data, active = GI50 up to about 1.1 µM and inactive = higher. Non-standard residues stand in square brackets, D forms with d. Residues, ends and D or L forms follow the SMILES beside them. ξ: configuration not given here. *: point of attachment. Cbz = O=C(OCc1ccccc1)*; ξK = NCCCCC(N)C(=O)O Bounds are passed on as bounds.

Some test systems named below: SF-539; OVCAR-5; A498; ACHN; Malme-3M; SF-295; A549; SK-MEL-2; Hs-578T; KM12; SNB-19; NCI-H522; SNB-75; OVCAR-3; HT-29; CCRF-CEM; DU-145; NCI-H460; UACC-62; DMS-114.
Holding throughout (experiment): inhibition of tumour cell growth, NCI panel, 48 h

`CCOC1OC(C)(C=C(C#N)C#N)CCC1C` (stereo not drawn): the GI50 was 23.8 µM (inactive) with SF-539; > 85.7 µM (inactive) in the experiment on OVCAR-5; 22.4 µM (inactive) in the experiment with A498; 37.5 µM (inactive) in the experiment on ACHN; 43.3 µM (inactive) with Malme-3M; > 67.5 µM (inactive) in the experiment with SF-295. Moreover, the GI50 in the experiment with A549 was 45.5 µM (inactive); in the experiment with SK-MEL-2, > 100 µM (inactive); with Hs-578T, 36 µM (inactive); in the experiment on KM12, > 74 µM (inactive); with SNB-19, > 57.3 µM (inactive); in the experiment with NCI-H522, 15.4 µM (inactive). For the same compound, the GI50 in the experiment on SNB-75 was 14.6 µM (inactive); with OVCAR-3, 24.5 µM (inactive); with HT-29 it was 27.6 µM (inactive); in the experiment with CCRF-CEM it was 30.3 µM (inactive); in the experiment with DU-145, 39.2 µM (inactive); with NCI-H460 it was 34.2 µM (inactive). Further, the GI50 in the experiment on UACC-62 is 38 µM (inactive).

With `Cc1ccc(/C=C2\CCCCC2=O)cc1`, the GI50 is > 100 µM (inactive) in the experiment with SF-539; > 100 µM (inactive) in the experiment with A498; 48.1 µM (inactive) in the experiment with ACHN; > 100 µM (inactive) in the experiment with SF-295; > 100 µM (inactive) in the experiment on A549; 29.6 µM (inactive) in the experiment with SNB-75. Also, the GI50 was 43.6 µM (inactive) in the experiment on DMS-114; > 100 µM (inactive) in the experiment with OVCAR-3; 46.6 µM (inactive) in the experiment on HT-29; 28.1 µM (inactive) with CCRF-CEM; 80.9 µM (inactive) with NCI-H460; > 100 µM (inactive) with UACC-62.

As to `O=C1C([P+](c2ccccc2)(c2ccccc2)c2ccccc2)=C([O-])C(=Cc2ccc(Cl)c(Cl)c2)C([O-])=C1[P+](c1ccccc1)(c1ccccc1)c1ccccc1`, the GI50 is 2.55 µM (inactive) in the experiment on SF-539; 3.56 µM (inactive) in the experiment on OVCAR-5; 15.1 µM (inactive) in the experiment with A498; 2.8 µM (inactive) in the experiment on ACHN; 2.34 µM (inactive) with Malme-3M; 2.65 µM (inactive) with SF-295. Further, the GI50 with A549 was 2.62 µM (inactive); in the experiment with SK-MEL-2, 2.44 µM (inactive); in the experiment on Hs-578T, 4.02 µM (inactive); in the experiment on KM12, 2.01 µM (inactive); in the experiment on SNB-19, 3.16 µM (inactive); with NCI-H522, 1.8 µM (inactive). In addition, the GI50 with SNB-75 was 4.02 µM (inactive); with OVCAR-3, 1.99 µM (inactive); in the experiment with HT-29, 1.91 µM (inactive); in the experiment with CCRF-CEM it was 0.465 µM (active); in the experiment with DU-145, 7.67 µM (inactive); with NCI-H460 it was 2.89 µM (inactive). Further, the GI50 in the experiment on UACC-62 was 2.23 µM (inactive).

Consider `COC(=O)NNC(=O)OC.COC(=O)Nc1ccccc1NC(=O)OC.COC(=O)Oc1nn(C(=O)OC)c(=O)c2ccccc12`, for which the GI50 is > 100 µM (inactive) with SF-539; > 100 µM (inactive) in the experiment on OVCAR-5; 39.1 µM (inactive) with A498; > 100 µM (inactive) with ACHN; > 100 µM (inactive) with Malme-3M; > 100 µM (inactive) in the experiment with SF-295. For the same compound, the GI50 in the experiment with A549, in the experiment with SK-MEL-2, in the experiment on Hs-578T, in the experiment with KM12, in the experiment on SNB-19 and with NCI-H522 was > 100 µM (inactive) throughout. For the same compound, the GI50 in the experiment with SNB-75, in the experiment with OVCAR-3, in the experiment with HT-29, with CCRF-CEM, with DU-145 and in the experiment on NCI-H460 was > 100 µM (inactive) each time. In the experiment with UACC-62, the GI50 was > 100 µM (inactive).

`O=C1NCC2(CCN(CCCC3(c4ccc(F)cc4)OCCO3)CC2)N1c1ccccc1`: the GI50 was > 100 µM (inactive) in the experiment on SF-539; > 100 µM (inactive) in the experiment on OVCAR-5; 86.3 µM (inactive) in the experiment with A498; > 100 µM (inactive) with ACHN; > 100 µM (inactive) with Malme-3M; > 100 µM (inactive) with SF-295. The GI50 in the experiment on A549, with SK-MEL-2, with Hs-578T, with KM12, in the experiment on SNB-19 and with NCI-H522 was > 100 µM (inactive) throughout. Further, the GI50 is 66.5 µM (inactive) in the experiment on SNB-75; > 100 µM (inactive) with OVCAR-3; 84.5 µM (inactive) in the experiment with HT-29; > 100 µM (inactive) in the experiment with CCRF-CEM; > 100 µM (inactive) in the experiment with DU-145; > 100 µM (inactive) in the experiment on NCI-H460. The GI50 in the experiment with UACC-62 is > 100 µM (inactive).

Turning to `C=C[C@]1(C)CC[C@]2(C)C(CC[C@@]3(C)C2C[C@H](O)[C@H](O)[C@@]3(C)O)C1` (stereo partly drawn), the GI50 in the experiment with SF-539, with OVCAR-5, with A498, with ACHN, with Malme-3M and with SF-295 was > 100 µM (inactive) throughout. For the same compound, the GI50 with A549, with SK-MEL-2, in the experiment with Hs-578T, with KM12, in the experiment with SNB-19 and in the experiment on NCI-H522 was > 100 µM (inactive) throughout. For the same compound, the GI50 with SNB-75, in the experiment on OVCAR-3, with HT-29, with CCRF-CEM, in the experiment with DU-145 and in the experiment on NCI-H460 was > 100 µM (inactive) each time. Besides, the GI50 in the experiment with UACC-62 is > 100 µM (inactive).

On to `CN(/N=C/c1ccnc2ccccc12)c1ccc(Cl)cc1[N+](=O)[O-]`, for which the GI50 in the experiment with SF-539 is 24.4 µM (inactive); in the experiment with OVCAR-5, > 100 µM (inactive); with A498, > 100 µM (inactive); in the experiment with ACHN it was > 100 µM (inactive); with Malme-3M it was 70.3 µM (inactive); in the experiment with SF-295, 15.1 µM (inactive). Also, the GI50 was > 100 µM (inactive) in the experiment on A549; > 100 µM (inactive) in the experiment on SK-MEL-2; 12.5 µM (inactive) with Hs-578T; > 100 µM (inactive) with KM12; > 100 µM (inactive) with SNB-19; > 100 µM (inactive) in the experiment with NCI-H522. Also, the GI50 in the experiment with SNB-75 is 26.6 µM (inactive); with OVCAR-3, 80.9 µM (inactive); with HT-29, 98.2 µM (inactive); in the experiment on CCRF-CEM, 50 µM (inactive); with DU-145 it was > 100 µM (inactive); in the experiment on NCI-H460 it was > 100 µM (inactive). In the experiment with UACC-62, the GI50 is > 100 µM (inactive).

Regarding `O=c1c2ccccc2c2nc3ccccc3nc2n1C1CCCCC1`, the GI50 in the experiment with SF-539 was > 100 µM (inactive); with OVCAR-5 it was > 100 µM (inactive); in the experiment on ACHN, > 100 µM (inactive); in the experiment with Malme-3M it was > 100 µM (inactive); with SF-295, 95.3 µM (inactive); in the experiment with A549, > 100 µM (inactive). Further, the GI50 with SK-MEL-2 is > 100 µM (inactive); in the experiment with KM12, > 100 µM (inactive); in the experiment with SNB-19, > 100 µM (inactive); in the experiment on NCI-H522, > 100 µM (inactive); in the experiment on SNB-75, 51.9 µM (inactive); in the experiment with DMS-114, > 100 µM (inactive). In addition, the GI50 in the experiment with OVCAR-3, in the experiment with HT-29 and with UACC-62 was > 100 µM (inactive) each time.

On to `CC(C)[Si](OC1=CCC[C@H]2NC(=O)[C@@H](Cc3ccccc3)[C@@]12C)(C(C)C)C(C)C`, for which the GI50 in the experiment with SF-539 is 5.74 µM (inactive); in the experiment with OVCAR-5, 9.44 µM (inactive); with A498 it was 5.79 µM (inactive); in the experiment on ACHN it was 1.89 µM (inactive); in the experiment on Malme-3M, 12.8 µM (inactive); in the experiment with SF-295, 4.85 µM (inactive). The GI50 in the experiment on A549 was 2.98 µM (inactive); with SK-MEL-2 it was 14.2 µM (inactive); with Hs-578T, 4.67 µM (inactive); in the experiment with KM12, 3.84 µM (inactive); in the experiment on SNB-19, 10 µM (inactive); with NCI-H522, 3.46 µM (inactive). In addition, the GI50 in the experiment on SNB-75 is 15.4 µM (inactive); in the experiment with OVCAR-3 it was 5.79 µM (inactive); with HT-29 it was 3.43 µM (inactive); with CCRF-CEM, 2.85 µM (inactive); in the experiment with DU-145 it was 10.2 µM (inactive); in the experiment with NCI-H460 it was 3.52 µM (inactive). Also, the GI50 in the experiment on UACC-62 is 8.95 µM (inactive).

Take `N#CC(C#N)=C1CCCCc2ccc([N+](=O)[O-])cc21`: the GI50 was > 100 µM (inactive) in the experiment with SF-539; > 100 µM (inactive) with OVCAR-5; 78.3 µM (inactive) in the experiment on A498; 93.5 µM (inactive) in the experiment with ACHN; > 100 µM (inactive) in the experiment with Malme-3M; > 100 µM (inactive) in the experiment with SF-295. In addition, the GI50 in the experiment with A549 was > 100 µM (inactive); with SK-MEL-2, > 100 µM (inactive); in the experiment with Hs-578T, > 100 µM (inactive); with KM12, > 100 µM (inactive); with SNB-19 it was > 100 µM (inactive); in the experiment with NCI-H522, 19.4 µM (inactive). The GI50 in the experiment with SNB-75 was > 100 µM (inactive); with OVCAR-3 it was 15.7 µM (inactive); with HT-29, 78.9 µM (inactive); in the experiment with CCRF-CEM it was 40.5 µM (inactive); with DU-145, > 100 µM (inactive); in the experiment with NCI-H460, > 100 µM (inactive). In addition, in the experiment with UACC-62, the GI50 was > 100 µM (inactive).

For `NCCCCC(NC(=O)OCc1ccccc1)C(=O)NCC(N)=O` (stereo not drawn) (Cbz-[ξK]-Gly-NH2), the GI50 in the experiment on SF-539, in the experiment with OVCAR-5, in the experiment with A498, in the experiment on ACHN, in the experiment with Malme-3M and in the experiment with SF-295 was > 100 µM (inactive) in each case. In addition, the GI50 in the experiment on A549, in the experiment on SK-MEL-2, in the experiment with Hs-578T, in the experiment with KM12, with SNB-19 and with NCI-H522 was > 100 µM (inactive) in each case. In addition, the GI50 with SNB-75, in the experiment with OVCAR-3, in the experiment with HT-29, in the experiment with CCRF-CEM, with DU-145 and with NCI-H460 was > 100 µM (inactive) throughout. In the experiment on UACC-62, the GI50 is > 100 µM (inactive).
